Data set [1] concerns the target RPE65 (Bos taurus, UniProt Q28175). The data set is described as follows: RPE65 activity assay in vitro (11-cis-retinol production by bovine RPE microsomes). The note with it: for RPE65 inhibition (in words): in vitro.
Data set [2] relates to RPE65. The note with it: 10 mg/kg IP; for 11cRAL / RE: mean ± SD, n = 3 mice.
Data set [3] is described as follows: Observation of animals after treatment (toxicity). The note with it: 10 mg/kg IP; even 24 h after treatment. The class given is in vivo, BALB/cJ mice. From the text:
Vehicle-only and nontreated animals served as controls. […] Three animals were used for each time point.

Data set [4] relates to VAP-1. Particulars: role: substrate; cited from earlier work.
Data set [5] deals with mouse liver microsomes (CYP-450 enzymes).
Another data set in a line: in vitro. The note with it: mouse, microsomes.
The target in data set [6] is T1, VAP-1 (Mus musculus, UniProt O70423).
T1 sequence (O70423 1-765): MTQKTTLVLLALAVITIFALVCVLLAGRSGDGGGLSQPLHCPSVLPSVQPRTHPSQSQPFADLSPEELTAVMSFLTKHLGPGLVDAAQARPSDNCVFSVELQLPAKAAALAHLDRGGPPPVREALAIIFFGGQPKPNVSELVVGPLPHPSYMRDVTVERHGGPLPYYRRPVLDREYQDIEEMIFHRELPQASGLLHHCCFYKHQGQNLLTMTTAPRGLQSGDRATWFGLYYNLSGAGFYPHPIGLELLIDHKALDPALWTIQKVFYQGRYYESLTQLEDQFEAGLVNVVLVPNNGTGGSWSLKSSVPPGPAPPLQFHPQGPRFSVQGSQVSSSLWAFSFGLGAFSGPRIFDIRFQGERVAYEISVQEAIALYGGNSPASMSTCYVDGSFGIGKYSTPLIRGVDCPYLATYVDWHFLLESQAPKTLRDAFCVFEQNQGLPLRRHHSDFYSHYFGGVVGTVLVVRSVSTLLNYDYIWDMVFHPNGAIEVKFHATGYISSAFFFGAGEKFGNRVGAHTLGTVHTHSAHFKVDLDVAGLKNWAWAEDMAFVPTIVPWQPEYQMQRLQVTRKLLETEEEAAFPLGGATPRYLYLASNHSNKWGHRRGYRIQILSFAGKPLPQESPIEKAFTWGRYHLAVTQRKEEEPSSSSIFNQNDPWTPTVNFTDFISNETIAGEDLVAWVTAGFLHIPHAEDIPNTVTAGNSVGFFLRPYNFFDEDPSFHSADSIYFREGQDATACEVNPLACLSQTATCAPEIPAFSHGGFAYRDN
The data set is described as follows: VAP-1 oxidation assay (mouse aorta homogenates). Particulars: role: substrate; for ACU-5201 (deaminated product) formed / concentration of tested compound in mouse aorta homogenate: 100 μM, mean ± SD, n = 3.

In data set [7] the test system is RPE65. The note with it: among first targeted inhibitors (amine derivatives of retinol); cited from earlier work.
The mark [8] stands for this setting: read-out: IC50 ± SD, bovine RPE microsomes, mean ± SD, n = 3.
The mark [9] stands for this setting: bovine RPE microsomes, mean ± SD, n = 3.

The values that follow come from patent publication US20260308108A1, “COMPOSITIONS AND METHODS FOR THE TREATMENT OF OCULAR DISORDERS” (Case Western Reserve University, priority 2023, published 2026).

Where “and” joins values, the source holds several entries; their conditions need not be identical. Equal entries are not always repeated. Entries after “also recorded” stand apart in the source; their conditions may differ. Where two headings read alike, the source gives them in different places.

A word on the IC50: it is the midpoint of a concentration-inhibition curve. The term Km denotes the substrate concentration at which the rate is half of its maximum.

Chain of RPE65 (Bos taurus, UniProt Q28175) (Q28175 whole entry): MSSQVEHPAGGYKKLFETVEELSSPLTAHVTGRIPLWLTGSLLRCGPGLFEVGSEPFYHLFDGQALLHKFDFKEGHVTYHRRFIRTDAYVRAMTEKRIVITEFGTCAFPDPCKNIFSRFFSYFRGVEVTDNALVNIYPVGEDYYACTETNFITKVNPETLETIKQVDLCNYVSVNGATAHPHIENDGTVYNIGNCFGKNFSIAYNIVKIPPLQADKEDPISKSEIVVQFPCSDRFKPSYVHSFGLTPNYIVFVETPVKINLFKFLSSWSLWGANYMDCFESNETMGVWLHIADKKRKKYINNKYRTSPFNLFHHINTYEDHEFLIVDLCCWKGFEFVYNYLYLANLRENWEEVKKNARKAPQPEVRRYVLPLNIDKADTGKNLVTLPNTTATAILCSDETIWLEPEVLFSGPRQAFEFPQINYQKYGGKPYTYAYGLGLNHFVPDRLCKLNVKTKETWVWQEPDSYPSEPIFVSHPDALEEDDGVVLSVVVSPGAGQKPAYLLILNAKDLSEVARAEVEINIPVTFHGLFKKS

Take `CC(CN)c1cccc(OCC2CCCCC2)c1` (stereo not shown) [Compound 11c, 2-(3-(Cyclohexylmethoxy)phenyl)propan-1-amine]: on RPE65 [1], the “RPE65 inhibition (in words)” value is recorded as “weaker inhibition; also recorded: the lowest level of inhibition”. The IC50 on RPE65 [1] (setting [8]) came to 6730 ± 260 nM.

Take `CC(CCN)c1cccc(OCC2CCCCC2)c1` (stereo not shown) [Compound 16b, 3-(3-(Cyclohexylmethoxy)phenyl)butan-1-amine]: on RPE65 [1], the “RPE65 inhibition (in words)” value is “the lowest level of inhibition” and the “decrease in inhibition of RPE65 relative to 3a” value stood at 4 fold. For the same compound, the IC50 at RPE65 [1] (setting [8]) is 820 ± 500 nM. For the same compound, the “potency relative to 16a” value on RPE65 [1] (relative to 16a) was “roughly doubled”. Besides, the “RPE65 inhibition in vivo (in words)” value in the data set with RPE65 [2] was “minor RPE65 inhibition 4 h after treatment, but animals were fully dark-adapted after 24 h”. In the data set with RPE65 [2] (0 h after light exposure), the 11cRAL is 25.6 ± 2.7 pmol/eye and the RE turned out to be 291.5 ± 33.1 pmol/eye. In the data set with RPE65 [2] (4 h), this compound gave a 11cRAL of 94.4 ± 11.4 pmol/eye and an RE of 435.5 ± 27.5 pmol/eye. Besides, in the data set on RPE65 [2] (24 h), the 11cRAL is 370.5 ± 9.1 pmol/eye and the RE was 123.9 ± 36.4 pmol/eye. Besides, the “toxicity observed in treated animals” value in [3] is reported as “all animals showed impaired body movement even 24 h after treatment”.

Compound `CC(CN)Cc1cccc(OCC2CCCCC2)c1` (stereo not shown) [Compound 16c] registered an IC50 against RPE65 [1] of 590 ± 70 nM. The 11cRAL in the data set on RPE65 [2] (0 h after light exposure) was determined as 17.4 ± 0.8 pmol/eye; in the data set on RPE65 [2] (4 h) it was 323.0 ± 5.1 pmol/eye; in the data set with RPE65 [2] (24 h), 253.5 ± 9.0 pmol/eye. The results for the RE in the data set with RPE65 [2] (0 h after light exposure), with RPE65 [2] (4 h) and in the data set with RPE65 [2] (24 h) were 253.5 ± 22.5 pmol/eye, 111.9 ± 18.5 pmol/eye and 85.6 ± 12.7 pmol/eye, respectively.

Regarding `COc1cc(NC(C)CCCN)c2ncccc2c1` (stereo not shown) [primaquine], the “VAP-1 metabolism (in words)” value in the data set on VAP-1 [4] is “shown important”.

Turning to `NCCC(O)c1ccccc1OCC1CCCCC1` (stereo not shown) [Compound 3c, 3-Amino-1-(2-(cyclohexylmethoxy)phenyl)propan-1-ol], the IC50 at RPE65 [1] (setting [8]) was determined as 4670 ± 1230 nM.

As to `N=C(N)NCCCCCCNC(=O)COC(=O)NCCCCNCCCN` [tresperimus], the “VAP-1 metabolism (in words)” value in the data set on VAP-1 [4] was “shown important”.

In turn, `NCCC(O)c1ccc(OCC2CCCCC2)cc1` (stereo not shown) [Compound 3b, 3-Amino-1-(4-(cyclohexylmethoxy)phenyl)propan-1-ol] had an IC50 against RPE65 [1] of 8980 ± 3440 nM.

As for `NC(CCO)c1cccc(OCC2CCCCC2)c1` (stereo not shown) [Compound 6a, 3-Amino-3-(3-(cyclohexylmethoxy)phenyl)propan-1-ol], on RPE65 [1] (setting [9]), the “IC50 ± SD” value is “No Inhibition”. At RPE65 [1], the “RPE65 inhibition (in words)” value is “lack of inhibitory activity; also recorded: no inhibition in vitro”.

Take `CNCCC(O)c1cccc(OCC2CCCCC2)c1` (stereo not shown) [Compound 16e, 1-(3-(Cyclohexylmethoxy)phenyl)-3-(methylamino)propan-1-ol]: the values for the 11cRAL in the data set on RPE65 [2] (0 h after light exposure), with RPE65 [2] (4 h) and in the data set with RPE65 [2] (24 h) were 13.8 ± 1.5 pmol/eye, 22.5 ± 4.5 pmol/eye and 201.8±53.2 pmol/eye, respectively. The RE was 296.6 ± 65.2 pmol/eye in the data set on RPE65 [2] (0 h after light exposure); 393.5 ± 60.0 pmol/eye in the data set with RPE65 [2] (4 h); 215.4±99.2 pmol/eye and 213.4 ± 99.2 pmol/eye in the data set on RPE65 [2] (24 h). In addition, the “level of 11cRAL as percent of the dark-adapted level” value with RPE65 [2] (24 h) was 53%. The Michaelis constant (Km) (in [5]; in “in vitro”) was 39 µM in each case. Also, the “16e level in eye” value (after single IP of 3a, 1 h) is recorded as 0.000 pmol/eye. Besides, the “16e level in serum” value stood at 0.00 pmol/mL serum (after single IP of 3a, 1 h) and 0.000 pmol/mL serum (after single IP of 16e, 24 h). For the same compound, the “levels in eye and plasma (in words)” value (after single IP of 16e (10 mg/kg)) is “decreased significantly at 4 h and approached baseline levels in both eye and plasma at 24 h after injection”. Moreover, the concentration (read-out: 16e level in serum, after single IP of 16e, 4 h, 10 mg/kg) came out at 0.111 µM. Also, the “VAP-1 oxidative metabolism (in words)” value at VAP-1 [6] is on record as “resistant to VAP-1 oxidative deamination”. The “ACU-5201 (deaminated product) formed” value is 0.00 ± 0.00 µM at VAP-1 [6] (0 h), 0.48 ± 0.68 µM at VAP-1 [6] (1 h) and 3.76 ± 0.29 µM at VAP-1 [6] (4 h). The figures for the “concentration of tested compound in mouse aorta homogenate” value at VAP-1 [6] (0 h), at VAP-1 [6] (1 h) and at VAP-1 [6] (4 h) were 100.32 ± 0.95 µM, 101.20 ± 0.89 µM and 89.07 ± 0.49 µM, respectively. Moreover, the “reduction of the formation of ACU-5201” value on VAP-1 [6] (1 h) is “about 99.5%”; on VAP-1 [6] (4 h), roughly 96.25%.

`NCCc1cccc(OCC2CCCCC2)c1` [Compound 11b, 2-(3-(Cyclohexylmethoxy)phenyl)ethan-1-amine] showed an IC50 against RPE65 [1] (bovine RPE microsomes) of 420 ± 110 nM. The “more potent activity toward RPE65 relative to amine 11a” value at RPE65 [1] (relative to 11a) is listed as 7.6 times. The “RPE65 inhibition in vivo (in words)” value with RPE65 [2] is reported as “did not display hallmarks of inhibited RPE65 activity in vivo”. In the data set with RPE65 [2] (0 h after light exposure), this compound returned a 11cRAL of 16.2 ± 16.2 pmol/eye and an RE of 225.1 ± 29.5 pmol/eye. In the data set with RPE65 [2] (24 h), this compound showed a 11cRAL of 137.4 ± 44.5 pmol/eye and an RE of 377.3 ± 54.4 pmol/eye.

Turning to `NC(CO)Cc1ccc(OCC2CCCCC2)cc1` (stereo not shown) [Compound 6c, 2-Amino-3-(4-(cyclohexylmethoxy)phenyl)propan-1-ol], on RPE65 [1] (setting [9]), the “IC50 ± SD” value was “No Inhibition”. For the same compound, the “RPE65 inhibition (in words)” value on RPE65 [1] is recorded as “lack of dose-response relationship”.

Regarding `NC(CO)Cc1cccc(OCC2CCCCC2)c1` (stereo not shown) [Compound 6b, 2-Amino-3-(3-(cyclohexylmethoxy)phenyl)propan-1-ol], the “IC50 ± SD” value at RPE65 [1] (setting [9]) was “No Inhibition”. Also, the “RPE65 inhibition (in words)” value at RPE65 [1] is given as “no inhibition in vitro”.

Take `CC1=C(/C=C/C(C)=C/C=C/C(C)=C/CN)C(C)(C)CCC1` [retinylamine]: the “potency as RPE65 inhibitor (in words)” value with RPE65 [7] is given as “the most potent among them”.

With `NCCc1ccc(F)c(OCC2CCCCC2)c1` [Compound 11d, 2-(3-(Cyclohexylmethoxy)-4-fluorophenyl)ethan-1-amine], the IC50 on RPE65 [1] (setting [8]) is 1230 ± 130 nM. In addition, at RPE65 [1] (relative to 11b), the “decrease in RPE65 inhibition relative to 11b” value was found to be 3 fold.

Turning to `CC(CN)Cc1ccc(F)c(OCC2CCCCC2)c1` (stereo not shown) [Compound 16d, 3-(3-(Cyclohexylmethoxy)-4-fluorophenyl)-2-methylpropan-1-amine], the “IC50 ± SD” value against RPE65 [1] (setting [9]) is reported as “No Inhibition”. Moreover, on RPE65 [1], the “RPE65 inhibition (in words)” value is “inactive”. The 11cRAL is 23.5 ± 2.3 pmol/eye in the data set on RPE65 [2] (0 h after light exposure); 398.0±26.6 pmol/eye and 413.2 ± 8.1 pmol/eye in the data set with RPE65 [2] (4 h); 398.0 ± 26.6 pmol/eye in the data set on RPE65 [2] (24 h). In addition, the values for the RE with RPE65 [2] (0 h after light exposure), in the data set on RPE65 [2] (4 h) and in the data set on RPE65 [2] (24 h) were 259.9 ± 54.6 pmol/eye, 101.1 ± 12.9 pmol/eye and 122.7 ± 30.6 pmol/eye, respectively.

Consider `NCC(O)c1cccc(OCC2CCCCC2)c1` (stereo not shown) [Compound 11a], for which the “RPE65 inhibition (in words)” value on RPE65 [1] is “substantially less potent than 3a”. For the same compound, at RPE65 [1] (setting [8]), the IC50 turned out to be 3190 ± 810 nM.

Regarding `NCCCc1cccc(OCC2CCCCC2)c1` [Compound 16a], on RPE65 [1] (setting [8]), the IC50 was 1550 ± 300 nM. Further, on RPE65 [1], the “decrease in inhibition of RPE65 relative to 3a” value is 8 fold.
